Source: ChEMBL document CHEMBL2380312, “Discovery of the first histone deacetylase 6/8 dual inhibitors” (J Med Chem, 2013)
pIC50: −log10 of the molar value. The source made the active and inactive calls. The calls are words filed in the database; no cut-off is given here.

What was measured:
Histone deacetylase 4 = Histone deacetylase 4 (Homo sapiens, UniProt P56524); assay: Inhibition of HDAC4 (unknown origin) after 60 mins by fluorescence assay
Homo sapiens [1] = organism: Homo sapiens; assay: Selectivity ratio of IC50 for HDAC4 (unknown origin) to IC50 for HDAC8 (unknown origin)
Homo sapiens [2] = organism: Homo sapiens; assay: Selectivity ratio of IC50 for HDAC4 (unknown origin) to IC50 for HDAC6 (unknown origin)
Homo sapiens [3] = organism: Homo sapiens; assay: Selectivity ratio of IC50 for HDAC2 (unknown origin) to IC50 for HDAC8 (unknown origin)
Homo sapiens [4] = organism: Homo sapiens; assay: Selectivity ratio of IC50 for HDAC2 (unknown origin) to IC50 for HDAC6 (unknown origin)
Histone deacetylase 8 = target: T1, Histone deacetylase 8 (Homo sapiens, UniProt Q9BY41); assay: Inhibition of HDAC8 (unknown origin) after 60 mins by fluorescence assay
T1 sequence (Q9BY41 whole entry): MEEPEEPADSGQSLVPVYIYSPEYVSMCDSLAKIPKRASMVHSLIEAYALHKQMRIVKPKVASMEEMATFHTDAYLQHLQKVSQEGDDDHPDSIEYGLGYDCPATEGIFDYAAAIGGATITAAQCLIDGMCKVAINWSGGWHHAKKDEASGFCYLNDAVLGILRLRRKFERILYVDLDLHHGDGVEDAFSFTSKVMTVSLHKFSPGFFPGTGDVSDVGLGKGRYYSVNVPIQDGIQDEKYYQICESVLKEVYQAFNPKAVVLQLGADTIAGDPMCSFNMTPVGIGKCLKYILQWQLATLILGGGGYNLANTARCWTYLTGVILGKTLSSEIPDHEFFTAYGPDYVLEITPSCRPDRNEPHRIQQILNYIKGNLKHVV

Histone deacetylase 9 = Histone deacetylase 9 (Homo sapiens, UniProt Q9UKV0); assay: Inhibition of HDAC9 (unknown origin) after 60 mins by fluorescence assay
Histone deacetylase 7 = target: T2, Histone deacetylase 7 (Homo sapiens, UniProt Q8WUI4); assay: Inhibition of HDAC7 (unknown origin) after 60 mins by fluorescence assay
T2 sequence (Q8WUI4 whole entry): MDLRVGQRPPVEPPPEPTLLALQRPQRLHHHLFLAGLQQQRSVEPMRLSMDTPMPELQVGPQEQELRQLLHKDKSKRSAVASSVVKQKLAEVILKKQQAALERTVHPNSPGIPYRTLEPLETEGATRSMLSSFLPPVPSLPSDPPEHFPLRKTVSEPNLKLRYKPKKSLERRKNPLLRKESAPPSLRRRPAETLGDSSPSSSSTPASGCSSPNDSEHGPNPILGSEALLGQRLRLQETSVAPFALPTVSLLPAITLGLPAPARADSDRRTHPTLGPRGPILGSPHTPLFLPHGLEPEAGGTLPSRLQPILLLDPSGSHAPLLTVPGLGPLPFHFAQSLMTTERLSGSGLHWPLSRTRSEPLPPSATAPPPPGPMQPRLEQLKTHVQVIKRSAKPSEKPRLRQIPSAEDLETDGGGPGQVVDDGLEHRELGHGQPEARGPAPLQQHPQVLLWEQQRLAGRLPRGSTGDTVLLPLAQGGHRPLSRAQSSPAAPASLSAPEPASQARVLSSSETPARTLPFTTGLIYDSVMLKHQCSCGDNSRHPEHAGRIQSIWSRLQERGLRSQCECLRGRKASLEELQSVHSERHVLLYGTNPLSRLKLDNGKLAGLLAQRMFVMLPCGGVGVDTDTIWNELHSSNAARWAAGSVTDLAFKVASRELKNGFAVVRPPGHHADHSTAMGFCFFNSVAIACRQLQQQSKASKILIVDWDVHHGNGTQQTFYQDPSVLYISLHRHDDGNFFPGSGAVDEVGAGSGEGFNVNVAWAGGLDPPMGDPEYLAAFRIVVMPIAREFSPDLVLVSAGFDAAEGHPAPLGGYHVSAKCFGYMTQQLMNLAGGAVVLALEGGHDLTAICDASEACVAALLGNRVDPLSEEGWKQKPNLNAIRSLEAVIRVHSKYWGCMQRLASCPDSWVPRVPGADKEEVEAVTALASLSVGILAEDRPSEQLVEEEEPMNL

[5] = target: T3, Protein deacetylase HDAC6 (Homo sapiens, UniProt Q9UBN7); assay: Inhibition of HDAC6 (unknown origin) after 60 mins by fluorescence assay
T3 sequence (Q9UBN7 whole entry): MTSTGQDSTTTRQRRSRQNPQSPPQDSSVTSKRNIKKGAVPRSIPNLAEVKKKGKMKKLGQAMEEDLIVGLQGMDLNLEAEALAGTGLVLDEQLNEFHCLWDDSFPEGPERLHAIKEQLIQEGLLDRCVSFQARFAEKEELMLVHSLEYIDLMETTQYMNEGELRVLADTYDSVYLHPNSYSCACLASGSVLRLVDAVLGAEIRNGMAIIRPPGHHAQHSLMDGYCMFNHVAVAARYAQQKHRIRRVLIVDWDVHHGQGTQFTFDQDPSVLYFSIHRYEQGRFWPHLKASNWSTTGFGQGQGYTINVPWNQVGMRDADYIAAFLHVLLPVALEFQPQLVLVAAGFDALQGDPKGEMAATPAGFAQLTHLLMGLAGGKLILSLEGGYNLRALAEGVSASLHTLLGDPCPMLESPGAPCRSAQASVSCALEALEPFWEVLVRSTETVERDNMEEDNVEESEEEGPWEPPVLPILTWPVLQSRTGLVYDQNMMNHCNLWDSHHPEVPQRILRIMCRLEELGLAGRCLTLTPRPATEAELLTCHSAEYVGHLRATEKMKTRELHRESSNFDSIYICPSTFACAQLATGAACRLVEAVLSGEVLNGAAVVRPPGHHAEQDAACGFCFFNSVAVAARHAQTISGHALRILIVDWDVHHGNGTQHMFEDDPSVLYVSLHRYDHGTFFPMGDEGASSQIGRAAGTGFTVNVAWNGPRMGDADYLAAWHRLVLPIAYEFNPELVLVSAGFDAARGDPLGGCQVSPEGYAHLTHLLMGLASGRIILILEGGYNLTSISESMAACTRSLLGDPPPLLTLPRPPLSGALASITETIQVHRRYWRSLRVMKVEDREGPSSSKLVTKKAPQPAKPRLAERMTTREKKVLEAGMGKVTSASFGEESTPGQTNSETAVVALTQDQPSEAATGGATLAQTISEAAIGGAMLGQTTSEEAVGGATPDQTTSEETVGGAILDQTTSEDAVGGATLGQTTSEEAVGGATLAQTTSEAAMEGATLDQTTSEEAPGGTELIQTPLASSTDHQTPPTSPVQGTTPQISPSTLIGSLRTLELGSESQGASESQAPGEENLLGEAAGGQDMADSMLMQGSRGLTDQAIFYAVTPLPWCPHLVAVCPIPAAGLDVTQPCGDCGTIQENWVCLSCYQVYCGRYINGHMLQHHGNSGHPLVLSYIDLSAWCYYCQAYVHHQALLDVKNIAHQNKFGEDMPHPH

Histone deacetylase 5 = Histone deacetylase 5 (Homo sapiens, UniProt Q9UQL6); assay: Inhibition of HDAC5 (unknown origin) after 60 mins by fluorescence assay
Histone deacetylase 3 = Histone deacetylase 3 (Homo sapiens, UniProt O15379); assay: Inhibition of HDAC3 (unknown origin) after 60 mins by fluorescence assay
Histone deacetylase 2 [6] = target: T4, Histone deacetylase 2 (Homo sapiens, UniProt Q92769); assay: Inhibition of HDAC2 (unknown origin) after 60 mins by fluorescence assay
Histone deacetylase 1 = Histone deacetylase 1 (Homo sapiens, UniProt Q13547); assay: Inhibition of HDAC1 (unknown origin) after 60 mins by fluorescence assay
Histone deacetylase 2 [7] = target: T4, Histone deacetylase 2; settings: HeLa, at 10 µM
Description: Inhibition of HDAC2 in human HeLa cells assessed as increase in histone H3 acetylation at 10 uM after 48 hrs by Western blotting analysis

T4 sequence (Q92769 whole entry): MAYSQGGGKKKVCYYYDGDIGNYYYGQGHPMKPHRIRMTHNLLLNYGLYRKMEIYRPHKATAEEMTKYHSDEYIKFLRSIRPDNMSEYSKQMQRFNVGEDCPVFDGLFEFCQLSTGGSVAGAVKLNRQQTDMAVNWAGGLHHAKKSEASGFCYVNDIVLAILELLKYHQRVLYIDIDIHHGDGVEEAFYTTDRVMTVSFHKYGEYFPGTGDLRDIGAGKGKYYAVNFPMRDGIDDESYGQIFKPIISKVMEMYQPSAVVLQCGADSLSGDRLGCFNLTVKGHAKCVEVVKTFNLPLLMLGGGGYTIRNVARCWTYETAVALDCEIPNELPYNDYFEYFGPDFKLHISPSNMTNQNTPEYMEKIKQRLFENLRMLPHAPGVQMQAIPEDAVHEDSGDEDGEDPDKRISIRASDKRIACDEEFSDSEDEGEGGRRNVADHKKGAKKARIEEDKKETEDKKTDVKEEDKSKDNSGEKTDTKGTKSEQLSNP
Sequence of Histone deacetylase 4 (P56524 whole entry): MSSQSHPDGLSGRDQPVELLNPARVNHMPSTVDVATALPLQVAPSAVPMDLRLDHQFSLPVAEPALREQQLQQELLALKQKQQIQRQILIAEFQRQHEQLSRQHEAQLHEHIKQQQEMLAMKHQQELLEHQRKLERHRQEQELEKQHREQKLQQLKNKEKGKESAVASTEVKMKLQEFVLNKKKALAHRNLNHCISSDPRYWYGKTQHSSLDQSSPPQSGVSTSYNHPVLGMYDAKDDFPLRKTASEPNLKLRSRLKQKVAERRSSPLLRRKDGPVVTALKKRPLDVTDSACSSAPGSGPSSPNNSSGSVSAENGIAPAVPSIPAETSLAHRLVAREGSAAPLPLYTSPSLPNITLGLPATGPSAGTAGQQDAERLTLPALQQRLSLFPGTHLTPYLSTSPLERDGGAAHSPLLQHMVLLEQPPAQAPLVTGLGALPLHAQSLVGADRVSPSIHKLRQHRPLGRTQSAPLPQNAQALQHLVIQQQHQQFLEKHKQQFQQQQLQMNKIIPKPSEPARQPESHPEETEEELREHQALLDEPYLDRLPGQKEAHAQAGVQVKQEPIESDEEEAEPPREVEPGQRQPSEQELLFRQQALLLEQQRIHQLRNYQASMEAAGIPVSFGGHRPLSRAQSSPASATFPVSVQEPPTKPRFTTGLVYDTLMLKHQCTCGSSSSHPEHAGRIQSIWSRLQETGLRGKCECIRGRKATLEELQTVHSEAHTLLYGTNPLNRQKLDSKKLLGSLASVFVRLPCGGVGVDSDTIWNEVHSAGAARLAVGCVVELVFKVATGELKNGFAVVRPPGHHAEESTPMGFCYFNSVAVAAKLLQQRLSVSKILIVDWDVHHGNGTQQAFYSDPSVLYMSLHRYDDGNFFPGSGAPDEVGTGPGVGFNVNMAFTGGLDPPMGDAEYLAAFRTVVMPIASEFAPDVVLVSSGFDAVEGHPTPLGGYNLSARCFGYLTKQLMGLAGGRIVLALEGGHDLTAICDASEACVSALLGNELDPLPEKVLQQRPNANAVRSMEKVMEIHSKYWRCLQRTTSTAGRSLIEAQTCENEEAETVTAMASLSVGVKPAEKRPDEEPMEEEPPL
Sequence of Histone deacetylase 3 (O15379 whole entry): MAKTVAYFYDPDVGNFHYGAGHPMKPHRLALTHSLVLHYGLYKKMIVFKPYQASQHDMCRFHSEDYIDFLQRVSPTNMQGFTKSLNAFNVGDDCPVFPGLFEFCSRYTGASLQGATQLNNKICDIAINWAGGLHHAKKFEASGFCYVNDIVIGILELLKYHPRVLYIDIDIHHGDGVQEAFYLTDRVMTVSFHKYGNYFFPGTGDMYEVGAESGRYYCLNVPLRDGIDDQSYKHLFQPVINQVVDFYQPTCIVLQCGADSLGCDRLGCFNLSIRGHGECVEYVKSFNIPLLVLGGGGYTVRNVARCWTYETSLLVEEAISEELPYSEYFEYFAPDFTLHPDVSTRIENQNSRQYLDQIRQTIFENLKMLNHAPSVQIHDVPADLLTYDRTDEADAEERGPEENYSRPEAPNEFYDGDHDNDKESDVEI
Sequence of Histone deacetylase 5 (Q9UQL6 whole entry): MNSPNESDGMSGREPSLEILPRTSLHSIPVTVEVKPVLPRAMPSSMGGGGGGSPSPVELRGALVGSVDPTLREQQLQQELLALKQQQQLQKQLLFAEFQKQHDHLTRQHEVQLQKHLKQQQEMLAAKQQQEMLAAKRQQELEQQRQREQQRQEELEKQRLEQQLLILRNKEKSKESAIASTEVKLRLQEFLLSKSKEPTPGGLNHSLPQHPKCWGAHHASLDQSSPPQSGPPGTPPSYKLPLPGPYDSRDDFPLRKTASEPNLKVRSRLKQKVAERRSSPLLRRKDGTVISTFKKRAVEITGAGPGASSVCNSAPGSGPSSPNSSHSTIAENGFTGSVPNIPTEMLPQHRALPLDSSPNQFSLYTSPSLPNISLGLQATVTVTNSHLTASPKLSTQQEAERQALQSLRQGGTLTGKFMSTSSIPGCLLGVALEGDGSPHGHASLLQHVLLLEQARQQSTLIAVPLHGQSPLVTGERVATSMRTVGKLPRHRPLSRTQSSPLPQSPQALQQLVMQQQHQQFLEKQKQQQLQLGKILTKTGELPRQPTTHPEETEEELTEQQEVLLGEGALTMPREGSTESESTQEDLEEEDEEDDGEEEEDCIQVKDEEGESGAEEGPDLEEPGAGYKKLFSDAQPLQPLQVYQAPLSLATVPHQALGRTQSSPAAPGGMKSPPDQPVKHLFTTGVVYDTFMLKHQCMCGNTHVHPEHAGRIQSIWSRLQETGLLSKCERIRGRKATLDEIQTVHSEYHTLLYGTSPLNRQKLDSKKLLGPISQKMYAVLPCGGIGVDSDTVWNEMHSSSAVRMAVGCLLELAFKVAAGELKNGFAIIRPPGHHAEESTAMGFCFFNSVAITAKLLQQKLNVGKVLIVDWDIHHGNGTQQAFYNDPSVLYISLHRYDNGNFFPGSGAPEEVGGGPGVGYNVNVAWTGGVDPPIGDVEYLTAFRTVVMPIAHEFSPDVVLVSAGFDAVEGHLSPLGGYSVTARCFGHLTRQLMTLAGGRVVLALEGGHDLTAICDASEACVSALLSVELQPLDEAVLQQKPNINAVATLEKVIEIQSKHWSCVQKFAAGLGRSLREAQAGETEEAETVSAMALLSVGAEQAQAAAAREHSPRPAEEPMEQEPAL
Sequence of Histone deacetylase 9 (Q9UKV0 whole entry): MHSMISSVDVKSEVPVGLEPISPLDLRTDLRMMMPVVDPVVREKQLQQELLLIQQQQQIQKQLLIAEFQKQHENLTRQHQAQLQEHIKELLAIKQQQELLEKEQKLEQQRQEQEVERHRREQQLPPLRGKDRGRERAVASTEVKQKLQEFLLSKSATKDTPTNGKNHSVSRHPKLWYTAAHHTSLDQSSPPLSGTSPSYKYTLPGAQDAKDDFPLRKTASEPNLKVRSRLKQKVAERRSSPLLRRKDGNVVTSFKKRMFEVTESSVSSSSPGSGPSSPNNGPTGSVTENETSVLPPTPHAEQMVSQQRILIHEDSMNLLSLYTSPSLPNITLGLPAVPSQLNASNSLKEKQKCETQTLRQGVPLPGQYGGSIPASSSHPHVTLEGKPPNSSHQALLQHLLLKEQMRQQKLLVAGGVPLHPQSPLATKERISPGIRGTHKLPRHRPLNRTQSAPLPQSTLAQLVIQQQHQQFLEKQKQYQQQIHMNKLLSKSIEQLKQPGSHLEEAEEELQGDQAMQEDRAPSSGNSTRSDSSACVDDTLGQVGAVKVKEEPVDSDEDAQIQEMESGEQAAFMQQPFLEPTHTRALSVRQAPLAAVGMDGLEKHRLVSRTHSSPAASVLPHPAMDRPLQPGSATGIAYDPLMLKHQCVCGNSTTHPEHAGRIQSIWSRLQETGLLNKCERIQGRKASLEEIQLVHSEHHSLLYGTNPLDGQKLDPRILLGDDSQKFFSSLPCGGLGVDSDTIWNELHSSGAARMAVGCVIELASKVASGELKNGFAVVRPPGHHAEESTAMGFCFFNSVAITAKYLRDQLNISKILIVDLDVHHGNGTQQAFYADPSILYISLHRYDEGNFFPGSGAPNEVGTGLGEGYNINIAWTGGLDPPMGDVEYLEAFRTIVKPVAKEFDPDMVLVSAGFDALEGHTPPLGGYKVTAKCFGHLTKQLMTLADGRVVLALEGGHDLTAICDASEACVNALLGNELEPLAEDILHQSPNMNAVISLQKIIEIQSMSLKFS
Sequence of Histone deacetylase 1 (Q13547 whole entry): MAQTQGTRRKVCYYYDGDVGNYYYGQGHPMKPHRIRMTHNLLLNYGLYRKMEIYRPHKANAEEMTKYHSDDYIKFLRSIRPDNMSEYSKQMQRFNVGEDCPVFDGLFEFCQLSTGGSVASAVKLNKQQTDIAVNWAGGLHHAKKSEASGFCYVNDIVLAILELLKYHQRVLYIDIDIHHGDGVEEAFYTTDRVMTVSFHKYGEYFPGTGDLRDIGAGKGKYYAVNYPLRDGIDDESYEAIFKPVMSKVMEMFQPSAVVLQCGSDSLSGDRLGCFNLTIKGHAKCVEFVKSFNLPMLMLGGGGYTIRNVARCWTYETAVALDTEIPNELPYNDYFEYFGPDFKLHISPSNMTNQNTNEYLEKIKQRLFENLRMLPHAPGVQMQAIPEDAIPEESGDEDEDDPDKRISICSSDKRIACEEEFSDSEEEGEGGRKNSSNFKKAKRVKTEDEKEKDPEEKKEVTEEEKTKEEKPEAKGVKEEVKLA

SMILES	pIC50 (Histone deacetylase 4)	Ratio IC50 (Homo sapiens [1])	Ratio IC50 (Homo sapiens [2])	Ratio IC50 (Homo sapiens [3])	Ratio IC50 (Homo sapiens [4])	pIC50 (Histone deacetylase 8)	pIC50 (Histone deacetylase 9)	pIC50 (Histone deacetylase 7)	pIC50 [5]	pIC50 (Histone deacetylase 5)	pIC50 (Histone deacetylase 3)	pIC50 (Histone deacetylase 2 [6])	pIC50 (Histone deacetylase 1)	inhibition (Histone deacetylase 2 [7])
O=C(NO)c1cccc(C(=O)Nc2ccccc2)c1	< 4.48	–	–	–	–	–	–	–	–	–	–	–	–	–
O=C(/C=C/c1cccc(C(=O)NO)c1)Nc1ccccc1	4.85	> 130	> 130	> 130	> 130	7.43	4.92	5.08	7.68	4.59	4.74	5.32	5.21	Active
O=C(NO)c1cccc(CNc2ccccc2)c1	< 4.48	–	–	–	–	5.77	–	–	5.89	–	–	< 4.48	–	–
O=C(NO)c1cccc(C(=O)NCCc2cccnc2)c1	< 4.48	–	–	–	–	6.38	–	–	7.23	–	–	4.70	–	–
Cc1cccc(C(=O)NO)c1	< 4.48	–	–	–	–	5.48	–	–	6.19	–	–	< 4.48	–	–
O=C(NO)c1cccc(C(=O)NCCc2ccccc2)c1	–	–	–	–	–	–	< 4.48	–	–	< 4.48	4.64	5.05	4.92	Active
O=C(NO)c1cccc(C(=O)NCc2ccccc2)c1	< 4.48	> 50	> 50	> 50	> 50	6.68	–	–	7.47	–	–	4.96	–	–
CNC(=O)c1cccc(C(=O)NO)c1	< 4.48	–	–	–	–	4.85	–	–	5.60	–	–	< 4.48	–	–
